{"source": "patent US9035052B2", "about": "“Compositions of azimilide dihydrochloride” (WARNER CHILCOTT COMPANY, LLC, priority 2006, dated 2015)", "key": {"[1]": {"assay": "Apparent water solubility and dissolution of the solid state forms"}, "[2]": {"assay": "Stability / water uptake of the solid state forms on exposure to relative humidity", "assay_type": "physicochemical"}}, "data": [{"smiles": "CN1CCN(CCCCN2C(=O)CN(/N=C/c3ccc(-c4ccc(Cl)cc4)o3)C2=O)CC1.Cl.Cl", "note": "[anhydrate, (E)-1-[[[5-(4-chlorophenyl)-2-furanyl]methylene]amino]-3-[4-(4-methyl-1-piperazinyl)butyl]-2,4-imidazolidinedione dihydrochloride]", "values": [{"measurement": "solubility as per the USP definition of solubility", "setting": "[1]", "value": "freely soluble"}, {"measurement": "solubility", "setting": "[1]; water", "value": 160, "unit": "mg/mL"}, {"measurement": "hygroscopicity (water uptake)", "setting": "[2]; room temperature, 85% relative humidity, up to 4 weeks", "value": "no evidence of water uptake"}]}, {"smiles": "CN1CCN(CCCCN2C(=O)CN(/N=C/c3ccc(-c4ccc(Cl)cc4)o3)C2=O)CC1.Cl.Cl", "note": "[hemi-hydrate, (E)-1-[[[5-(4-chlorophenyl)-2-furanyl]methylene]amino]-3-[4-(4-methyl-1-piperazinyl)butyl]-2,4-imidazolidinedione dihydrochloride]", "values": [{"measurement": "dissolution rate compared with the anhydrate form", "setting": "[1]; water", "value": "more rapid"}, {"measurement": "solubility", "setting": "[1]; water, apparent water solubility, room temperature", "value": "~170", "unit": "mg/mL"}, {"measurement": "water content stability", "setting": "[2]; room temperature, relative humidity range of 12% to 85% RH", "value": "stable"}]}, {"smiles": "CN1CCN(CCCCN2C(=O)CN(/N=C/c3ccc(-c4ccc(Cl)cc4)o3)C2=O)CC1.Cl.Cl", "note": "[isopropanol solvate, (E)-1-[[[5-(4-chlorophenyl)-2-furanyl]methylene]amino]-3-[4-(4-methyl-1-piperazinyl)butyl]-2,4-imidazolidinedione dihydrochloride]", "values": [{"measurement": "apparent water solubility", "setting": "[1]; water, room temperature, dihydrochloride", "value": 220, "unit": "mg/mL"}, {"measurement": "solid form conversion on humidity exposure", "setting": "[2]; 85% relative humidity", "value": "converts to the anhydrate form within days to weeks"}, {"measurement": "stability upon exposure to humidity", "setting": "[2]; exposure to humidity", "value": "not stable"}]}]}
